Laboratory results taken from patent US7718651B2, “Inhibitors of FtsZ and uses thereof” (priority 2002, dated 2010).
Converted amounts (≈) assume the structure as drawn. “And” between values parts separate entries of the source, which are not always exact repeats. Equal values may be shown once. “Also recorded” adds a separate entry of the source. Read-outs that look alike come from different tables or passages of the source.

Columns and labels:
M. tuberculosis H37Rv [1] = test: microbe, parasite or virus in culture; type: cell-based; details: for inhibition of growth at 12.5 µg/mL: Mycobacterium tuberculosis, at 12.5% μg/ml (so in the source), read-out: Primary Screen PI (% inhibition of growth); for inhibition of growth at 12.5 µg/mL / % Inh: M. tuberculosis H37Rv; for activity against M. tuberculosis H37Rv in the primary screen: in words; for % Inh: screen concentration 12.5 g/ml [sic], Table 8
M. tuberculosis FtsZ [2] = biological target: T1, M. tuberculosis FtsZ (Mycobacterium tuberculosis, UniProt P9WN95); test: biochemical; details: read-out: FtsZ polymerization ID50
M. tuberculosis FtsZ [3] = biological target: T1, M. tuberculosis FtsZ; test: biochemical; details: 100 μM compound, Table 6; read-out: M. tuberculosis FtsZ GTP Hydrolysis % Inhibition (100 μM)
Vero cells = test: Cytotoxicity in Vero cells (MTS assay); type: cell-based; details: Chlorocebus sabaeus
bovine tubulin = test: Light scattering assay for tubulin polymerization; type: biochemical
M. tuberculosis H37Rv [4] = test: MIC99 determination, BACTEC 460 radiometric system; type: cell-based; details: Mycobacterium tuberculosis
M. tuberculosis H37Ra = test: MIC/MBC, colorimetric (alamar blue) microdilution broth assay; type: cell-based; details: for log reduction in cfu/mL: H37Ra
Escherichia coli = test: Microdilution broth MIC, Escherichia coli; type: cell-based
S. epidermidis = test: Microdilution broth MIC, S. epidermidis; type: cell-based; details: Staphylococcus epidermidis; S. epidermidis SRI 1296, Trimethoprim resistant
M. tuberculosis Erdman = test: Activity in M. tuberculosis-infected mouse bone marrow macrophages; type: cell-based; details: for EC90: Mycobacterium tuberculosis, ERDMAN, Bone marrow macrophage, 168 h
Method: Toxicity was determined by visual inspection.

Bacillus subtilis = test: Microdilution broth MIC, Bacillus subtilis; type: cell-based; details: Bacillus subtilis SRI 1032, Wild type
Staphylococcus aureus = test: Microdilution broth MIC, Staphylococcus aureus; type: cell-based
[5] = system: panel of Gram positive rods and cocci; test: Microdilution broth MIC against a panel of bacteria; type: cell-based
Salmonella typhimurium = test: Microdilution broth MIC, Salmonella typhimurium; type: cell-based
E. faecium = test: Microdilution broth MIC, E. faecium; type: cell-based; details: Enterococcus faecium; E. faecium SRI 1421, Vancomycin resistant
Enterococcus hirae = test: Microdilution broth MIC, Enterococcus hirae; type: cell-based; details: Enterococcus hirae SRI 76, Wild type
[6] = system: Mycobacterium bovis (BCG); type: cell-based
E. faecalis = test: Microdilution broth MIC, E. faecalis; type: cell-based
[7] = 72 h, Vero cells, 72 h exposure, Table 3, read-out: IC50
[8] = M. tuberculosis H37Rv, read-out: MIC99

T1 sequence (P9WN95 whole entry, looked up): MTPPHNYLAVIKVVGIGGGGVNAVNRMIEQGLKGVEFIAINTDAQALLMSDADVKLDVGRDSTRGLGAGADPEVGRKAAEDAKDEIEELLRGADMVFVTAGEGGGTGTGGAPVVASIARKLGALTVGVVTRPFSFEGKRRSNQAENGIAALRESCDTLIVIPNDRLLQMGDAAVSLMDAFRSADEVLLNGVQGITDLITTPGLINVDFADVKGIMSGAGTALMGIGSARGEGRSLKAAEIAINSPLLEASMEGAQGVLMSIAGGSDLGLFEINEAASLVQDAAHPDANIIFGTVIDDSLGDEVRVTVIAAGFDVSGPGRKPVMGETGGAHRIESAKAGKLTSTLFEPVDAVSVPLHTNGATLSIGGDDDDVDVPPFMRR

Question: Which results are given for `CCOC(=O)Nc1cc2c(c(N)n1)N=C(c1ccccc1)CCN2` [SRI-7614, (1-Amino-8-phenyl-6,7-dihydro-5H-2,5,9-triaza-benzocyclohepten-3-yl)-carbamic acid ethyl ester]?
Answer: inhibition of growth at 12.5 µg/mL (M. tuberculosis H37Rv [1]): 100%; activity against M. tuberculosis H37Rv in the primary screen (M. tuberculosis H37Rv [1]): demonstrated activity; IC50 (M. tuberculosis FtsZ [2]): 60 µM; inhibition at 100 µM (M. tuberculosis FtsZ [3]): 25%; IC50 (Vero cells; [7]): > 200 µg/mL; IC50 (Vero cells; Vero cells, read-out: IC50): > 200 µg/mL; IC50 (bovine tubulin; read-out: tubulin polymerization ID50): 4 µM; MIC99 (M. tuberculosis H37Rv [4]; H37RV): 6.25 µg/mL; MIC99 (M. tuberculosis H37Rv [4]; H37RV, read-out: Screen 2 MIC99): 6.25 µg/mL; MIC99 (M. tuberculosis H37Rv [4]; [8]): 19 µM

Question: `CC[C@@H](CO)NCCN[C@@H](CC)CO` [Ethambutol, ethambutol, reference compound] was tested. Which MIC (M. tuberculosis H37Ra; Mycobacterium tuberculosis, H37RA, M. tuberculosis H37Ra, positive control, read-out: MIC) did it give?
Answer: The MIC was 2 µg/mL (≈ 9.79 µM).

Question: For `CCOC(=O)Nc1cc(NC(C)CCCN(CC)CC)c2nc(-c3ccccc3)c(-c3ccccc3)nc2n1` (centres unmarked) [SRI-3072, [8-(4-Diethylamino-1-methyl-butylamino)-2,3-diphenyl-pyrido[2,3-b]pyrazin-6-yl]-carbamic acid ethyl ester], which MIC (Escherichia coli; Escherichia coli SRI 1218, Wild type) is on record?
Answer: Its MIC is over 64 µg/mL.

Question: And the “activity against E. coli” value (Escherichia coli; in words)?
Answer: The value was “not active”.

Question: What about the inhibition of growth at 12.5 µg/mL (M. tuberculosis H37Rv [1]) of the same compound?
Answer: Its inhibition of growth at 12.5 µg/mL is 100%.

Question: What about the “activity against M. tuberculosis H37Rv in the primary screen” value (M. tuberculosis H37Rv [1]) of the same compound?
Answer: The value was “demonstrated activity”.

Question: What about the MIC (S. epidermidis) of the same compound?
Answer: Its MIC is 32 µg/mL (≈ 60.8 µM).

Question: What about the IC50 (M. tuberculosis FtsZ [2]) of the same compound?
Answer: The IC50 was 52 ± 12 µM.

Question: And the inhibition at 100 µM (M. tuberculosis FtsZ [3])?
Answer: The inhibition at 100 µM was 20%.

Question: And the EC90 (M. tuberculosis Erdman; after seven days, read-out: EC90)?
Answer: The EC90 was 0.12 µg/mL.

Question: What about the EC90 (M. tuberculosis Erdman; after seven days, read-out: EC90 (90% reduction in mycobacterial growth)) of the same compound?
Answer: Its EC90 is 230 nM.

Question: And the EC99 (M. tuberculosis Erdman; after seven days)?
Answer: The EC99 was 1.42 µg/mL.

Question: And the “EC99 (99% reduction in mycobacterial growth)” value (M. tuberculosis Erdman; after seven days)?
Answer: The value was 2.7 µM.

Question: What about the “growth of M. tuberculosis in infected mouse bone marrow macrophages” value (M. tuberculosis Erdman; in words) of the same compound?
Answer: The value was “inhibit the growth”.

Question: And the MIC (Bacillus subtilis)?
Answer: The MIC was 16 µg/mL (≈ 30.4 µM).

Question: And the MIC (Staphylococcus aureus; S. aureus SRI 1186, Wild type)?
Answer: The MIC was 32 µg/mL (≈ 60.8 µM).

Question: And the MIC (Staphylococcus aureus; S. aureus SRI 1279, Methicillin resistant)?
Answer: The MIC was 64 µg/mL (≈ 122 µM).

Question: And the MIC (Staphylococcus aureus; S. aureus SRI 1343, Multi-drug resistant)?
Answer: Its MIC is 64 µg/mL (≈ 122 µM).

Question: What about the MIC (Staphylococcus aureus; Staphylocococcus aureus SRI 1323, Wild type) of the same compound?
Answer: The MIC was 32 µg/mL (≈ 60.8 µM).

Question: What about the MIC (Staphylococcus aureus; strain not named) of the same compound?
Answer: Its MIC is 32 µg/mL (≈ 60.8 µM).

Question: What about the “log reduction in cfu/mL” value (M. tuberculosis H37Ra; 0.95 μM drug, six days) of the same compound?
Answer: Its value is 0.98±0.11.

Question: And the “log reduction in cfu/mL” value (M. tuberculosis H37Ra; 1.9 μM drug, six days)?
Answer: The value was 1.7±0.06.

Question: And the “log reduction in cfu/mL” value (M. tuberculosis H37Ra; 3.8 μM drug, six days)?
Answer: Its value is 2.0±0.12.

Question: What about the MBC (M. tuberculosis H37Ra; Mycobacterium tuberculosis, H37RA, 144 h, M. tuberculosis H37Ra, six days) of the same compound?
Answer: Its MBC is 1 µg/mL to 2 µg/mL and 1.9 µM to 3.8 µM.

Question: What about the MIC (M. tuberculosis H37Ra; Mycobacterium tuberculosis, H37RA, M. tuberculosis H37Ra, FIG. 2 legend) of the same compound?
Answer: The MIC was 250 µg/mL (≈ 475 µM).

Question: And the MIC (M. tuberculosis H37Ra; Mycobacterium tuberculosis, H37RA, M. tuberculosis H37Ra, read-out: MIC)?
Answer: The MIC was 0.25 µg/mL and 0.47 µM.

Question: And the IC50 (Vero cells; [7])?
Answer: Its IC50 is 6.3 µg/mL (≈ 12 µM).

Question: What about the IC50 (Vero cells; Vero cells, read-out: IC50) of the same compound?
Answer: Its IC50 is 6.3 µg/mL (≈ 12 µM).

Question: What about the “inhibition of tubulin polymerization” value (bovine tubulin; in words, 100 μM) of the same compound?
Answer: Its value is “no inhibition of tubulin was seen; also recorded: no effect”.

Question: What about the “Bovine Brain Tubulin Polymerization ID50” value (bovine tubulin; tubulin 20 μM, 1 mM GTP, Table 6) of the same compound?
Answer: Its value is “no inhibition (100 μM)”.

Question: And the MIC ([5]; Bacillus subtilis, read-out: MICs against expanded panel of Gram positive rods and cocci)?
Answer: The MIC was 32 to 64 µg/mL (≈ 60.8 to 122 µM).

Question: And the “activity against several Gram-positive bacteria, including drug resistant strains” value ([5]; in words)?
Answer: Its value is “moderate activity”.

Question: What about the MIC (Salmonella typhimurium; Salmonella enterica, TYPHIMURIUM) of the same compound?
Answer: The MIC was 64 µg/mL (≈ 122 µM).

Question: And the “activity against S. typhimurium deep rough (rfa) mutant” value (Salmonella typhimurium; in words)?
Answer: Its value is “active”.

Question: What about the MIC (M. tuberculosis H37Rv [4]; H37RV, MIC referred to for dosing of the macrophage assay, strain not stated, read-out: MIC) of the same compound?
Answer: Its MIC is 0.2 µg/mL (≈ 0.38 µM).

Question: What about the MIC99 (M. tuberculosis H37Rv [4]; M. tuberculosis H37Rv, Table 3, read-out: Screen 2 MIC99) of the same compound?
Answer: The MIC99 was 0.15 µg/mL.

Question: What about the MIC99 (M. tuberculosis H37Rv [4]; [8]) of the same compound?
Answer: The MIC99 was 0.15 µg/mL and 0.28 µM.

Question: And the MIC (M. tuberculosis H37Rv [4]; wildtype (H37Rv), Table 5, read-out: MIC, WT)?
Answer: Its MIC is 0.2 µg/mL (≈ 0.38 µM).

Question: What about the MIC (E. faecium) of the same compound?
Answer: Its MIC is 32 µg/mL (≈ 60.8 µM).

Question: And the MIC (Enterococcus hirae)?
Answer: The MIC was 32 µg/mL (≈ 60.8 µM).

Question: And the “cell length / morphology” value [6]?
Answer: Its value is “much longer and branched”.

Question: And the “recovery after washing to remove drug” value ([6]; BCG cultured cells)?
Answer: The value was “do not recover”.

Question: And the MIC (E. faecalis; E. faecalis SRl 1295, Wild type)?
Answer: The MIC was 64 µg/mL (≈ 122 µM).

Question: And the MIC (E. faecalis; Enterococcus faecalis, E. faecalis SM 1414, Vancomycin resistant, read-out: MIC)?
Answer: The MIC was 64 µg/mL (≈ 122 µM).

Question: For `CCOC(=O)Nc1cc2[nH]c(-c3ccc(OC)cc3)nc2c(NC(c2ccccc2)c2ccccc2)n1` [Compound A46], which “% Inh” value (M. tuberculosis H37Rv [1]) is on record?
Answer: The value was 93%.

Question: And the IC50 (Vero cells; Vero cells, Table 8, read-out: IC50)?
Answer: Its IC50 is 189 µg/mL (≈ 383 µM).

Question: And the MIC (M. tuberculosis H37Rv [4]; M. tuberculosis H37Rv, Table 8, read-out: MIC)?
Answer: Its MIC is 3.13 µg/mL (≈ 6.34 µM).

Question: For `CCOC(=O)Nc1cc(NC(C)CCCN(CC)CC)c2nc(-c3ccc(F)cc3)cnc2n1` (centres unmarked) [Compound A25], which “% Inh” value (M. tuberculosis H37Rv [1]) is on record?
Answer: The value was 98%.

Question: What about the IC50 (Vero cells) of the same compound?
Answer: The IC50 was 6.8 µg/mL (≈ 14.5 µM).

Question: What about the MIC (M. tuberculosis H37Rv [4]; H37RV) of the same compound?
Answer: The MIC was 12.5 µg/mL (≈ 26.7 µM).
